Results: paper PMC8244912, “An oxytocin/vasopressin-related neuropeptide modulates social foraging behavior in the clonal raider ant” (PLoS Biology, 2021)
Entries after “also recorded” stand apart in the source; their conditions may differ.

Tests used:
[1] = tested on: HEK293T cells transfected with an empty vector; test: Calcium flux, HEK293T cells transfected with empty vector; assay type: cell-based, human; settings: ATP 10 μM (cell health control)
Description: (§1) Human embryonic kidney 293T (HEK293T) cells were cultured in DMEM supplemented with 10% FBS at 37°C in a tissue culture incubator with a humidified atmosphere containing 5% CO2. Cells were plated in 10-cm dishes, and, when they reached 60% to 70% confluency, they were transfected with a pcDNA3.3 vector containing approximately 1 ng of inotocin receptor cDNA or an empty vector as a control using Lipofectamine 2000. Cells were transfected directly into poly-D-lysine–coated 384-well plates and incubated for 48 hours at 37°C. Subsequently, cells were incubated with FLIPR Calcium 4 Assay kit dye for 1 hour in the incubator. The fluorescence (excitation, 488 nm; emission, 530 nm) of the wells was recorded using a Flex Station II 384 (Molecular Devices, San Jose, California, USA), and a dose curve of inotocin (0 to 3 μM) was applied to the wells, in sextuplicate (see below for inotocin peptide synthesis). We calculated the EC50 values using Prism (GraphPad Software version 8) nonlinear regression, 4-parameter logistic curve fit. Dose curves were repeated at least 3 times on independently prepared samples and different days. Results were consistent across replicates, and example dose curves are shown in Fig 1C and S4A Fig. Control experiments are shown in S2–S5 Figs.

[2] = biological target: O. biroi inotocin receptor (ObiroiItr_A) (Ooceraea biroi, UniProt A0A8F5LPT9); test: Calcium flux, HEK293T cells transfected with full-length inotocin receptor (FLIPR Calcium 4); assay type: cell-based; settings: for calcium response: HEK293T cells expressing full-length itcR; for LogEC50 / HillSlope: variable slope
O. biroi inotocin receptor (ObiroiItr_A), sequence (A0A8F5LPT9 entry or part of it): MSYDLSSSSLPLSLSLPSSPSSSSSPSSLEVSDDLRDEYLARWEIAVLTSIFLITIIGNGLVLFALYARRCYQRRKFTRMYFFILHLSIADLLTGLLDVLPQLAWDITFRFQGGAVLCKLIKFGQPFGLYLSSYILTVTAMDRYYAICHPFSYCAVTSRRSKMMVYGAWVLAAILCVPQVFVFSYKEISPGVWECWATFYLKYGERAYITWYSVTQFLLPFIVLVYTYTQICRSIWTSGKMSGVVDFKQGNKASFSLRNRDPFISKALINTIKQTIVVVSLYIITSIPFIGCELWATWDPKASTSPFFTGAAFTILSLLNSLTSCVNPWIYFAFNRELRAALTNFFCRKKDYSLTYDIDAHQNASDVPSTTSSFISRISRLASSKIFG
Description: RNA was isolated in TRIzol using the RNeasy (Qiagen, Germantown, Maryland, USA) purification kit with DNAse I (Qiagen) on-column digestion as in [52] from a sample that contained adult ants, larvae, and pupae and reverse-transcribed into cDNA. Full-length cDNAs for the O. biroi inotocin receptor were PCR amplified with primers 5′-[…]-3′ and 5′-[…]-3′, using the Easy-A high fidelity polymerase (Agilent, Santa Clara, California, USA) to generate PCR products with 5′-Kozak consensus sequences and 3′-A overhangs. The inotocin receptor cDNAs were cloned into the pcDNA3.3 TOPO TA cloning vector (Invitrogen, Waltham, Massachusetts, USA) following manufacturer’s guidelines.
The full-length inotocin receptor cDNA sequence that was cloned and used for calcium assays is ObiroiItr_A (GenBank MW660838; for protein sequence, see S1 Fig). We also tested splice variant ObiroiItr_H (GenBank MW660845; for protein sequence, see S1 Fig), which lacks TM4-7, for calcium activity.
as §1, with “[…],” for “and a dose curve of inotocin (0 to 3 μM) was applied to the wells,”, “days.” for “days. Results were consistent across replicates, and example dose curves are shown in Fig 1C and S4A Fig. Control experiments are shown in S2–S5 Figs.”

[3] = tested on: HEK293 cells; settings: oxytocin: ref Burger, Fahrenholz et al. 1999, Ma, Hashii et al. 2013, vasopressin: ref Burger; cited from earlier work
Description: (§2) We have edited this last sentence of the abstract to: “Inotocin signaling thereby likely contributes to behavioral individuality an ...

[4] = tested on: untransfected HEK293 cell membranes; settings: ref Jasper, Harrell et al. 1995; cited from earlier work
Description: as §2

[5] = tested on: beetle inotocin receptor; settings: CHO cells; ref Stafflinger, Hansen et al. 2008; cited from earlier work
Description: as §2

[6] = tested on: itcR from Lasius ants; settings: CHO cells; ref Koto, Motoyama et al. 2019; cited from earlier work
Description: as §2

For `Nc1ncnc2c1ncn2[C@@H]1O[C@H](COP(=O)(O)OP(=O)(O)OP(=O)(O)O)[C@@H](O)[C@H]1O` [ATP, reference compound], the “calcium response” value [1] was “are healthy and show calcium responses”.

In the case of `N=C(N)NCCC[C@H](NC(=O)[C@@H]1CCCN1C(=O)[C@@H]1CSSC[C@H](N)C(=O)N[C@@H](Cc2ccc(O)cc2)C(=O)N[C@@H](Cc2ccccc2)C(=O)N[C@@H](CCC(N)=O)C(=O)N[C@@H](CC(N)=O)C(=O)N1)C(=O)NCC(N)=O` [AVP], the EC50 [2] is reported as 12.6 µM, the “calcium response” value ([2]; listed as vasopressin) is reported as “also elicit calcium responses; also recorded: also produced calcium transients” and the LogEC50 ([2]; S4C Fig, AVP, SE 0.09024, 95% CI -5.083 to -4.715) is reported as -4.899. For the same compound, the HillSlope ([2]; S4C Fig, AVP, SE 0.1917, 95% CI 0.6094 to 1.391) was 1, the “calcium responses of untransfected and mock transfected HEK293 cells” value [3] was “do not show calcium” and the “binding of radiolabeled peptide” value [4] was “do not bind”.

In the case of `CC[C@H](C)[C@@H]1NC(=O)[C@H](Cc2ccc(O)cc2)NC(=O)[C@@H](N)CSSC[C@@H](C(=O)N2CCC[C@H]2C(=O)N[C@@H](CC(C)C)C(=O)NCC(N)=O)NC(=O)[C@H](CC(N)=O)NC(=O)[C@H](CCC(N)=O)NC1=O` [oxytocin], the EC50 [2] is reported as 0.835 µM, the “calcium response” value [2] is reported as “also elicit calcium responses; also recorded: also produced calcium transients” and the HillSlope ([2]; S4B Fig, oxytocin, SE 0.05165, 95% CI 0.5075 to 0.7181) is reported as 0.6128. The LogEC50 ([2]; S4B Fig, oxytocin, X data log of Molar_Oxytocin, SE 0.0661, 95% CI -6.213 to -5.944) was -6.078, the “calcium responses of untransfected and mock transfected HEK293 cells” value [3] was “do not show calcium” and the “receptor response” value [5] was “responds”. For the same compound, the “receptor response” value [6] was “respond” and the “binding of radiolabeled peptide” value [4] was “do not bind”.

In the case of “NRPCGLTCI [scrambled control peptide, scrambled version of inotocin (…) as negative control with identical amino acid composition]”, the “calcium response” value [2] is reported as “No Ca^2+ influx is detected”.
